For this data set, the system named is Phospholipidosis. In words: Literature-mined public compounds from Kruhlak et al phospholipidosis modelling dataset.
Regarding `O=C(N[C@H](CO)[C@H](O)c1ccc([N+](=O)[O-])cc1)C(Cl)Cl` [CHLORAMPHENICOL], the Phospholipidosis entry was “Positive: weak inducer based on presence of foamy macrophages and cytoplasmic vacuolations”.
With `CN1CCN(C(c2ccccc2)c2ccc(Cl)cc2)CC1` (centres undefined) [CHLORCYCLIZINE] the entry was “Positive: strong inducer confirmed by electron microscopy”; with `CC(=O)O[C@]1(C(C)=O)CC[C@H]2[C@@H]3C=C(Cl)C4=CC(=O)CC[C@]4(C)[C@H]3CC[C@@]21C` [CHLORMADINONE ACETATE], “Negative: based on the absence of positive reported data from WMDD”; with `CC(=O)[C@@]1(O)CC[C@H]2[C@@H]3C=C(Cl)C4=CC(=O)CC[C@]4(C)[C@H]3CC[C@@]21C` [CHLORMADINONE], “Negative: based on the absence of positive reported data from WMDD”.
With `CC(CCCN(CCCl)CCCl)Nc1ccnc2cc(Cl)ccc12` (centres undefined) [CHLOROQUINE MUSTARD] the entry was “Positive: weak inducer based on presence of foamy macrophages and cytoplasmic vacuolations”.
With `CCN(CC)CCCC(C)Nc1ccnc2cc(Cl)ccc12` (centres undefined) [CHLOROQUINE] the entry was “Positive: strong inducer confirmed by electron microscopy”; with `NS(=O)(=O)c1cc2c(cc1Cl)N=CNS2(=O)=O` [CHLOROTHIAZIDE], “Negative: based on the absence of positive reported data from WMDD”; with `Oc1c(Cl)cc(Cl)c2cccnc12` [CHLOROXINE], “Negative: based on the absence of positive reported data from WMDD”.
On to `CC(C)(N)Cc1ccc(Cl)cc1` [CHLORPHENTERMINE], for which the Phospholipidosis entry was “Positive: strong inducer confirmed by electron microscopy”.
With `CN(C)CCCN1c2ccccc2Sc2ccc(Cl)cc21` [CHLORPROMAZINE] the entry was “Positive: strong inducer confirmed by electron microscopy”.
As to `CCCNC(=O)NS(=O)(=O)c1ccc(Cl)cc1` [CHLORPROPAMIDE], the Phospholipidosis entry is on record as “Negative: based on the absence of positive reported data from WMDD”.
Next, `CN(C)[C@@H]1C(O)=C(C(N)=O)C(=O)[C@@]2(O)C(O)=C3C(=O)c4c(O)ccc(Cl)c4[C@@](C)(O)[C@H]3C[C@@H]12` [CHLORTETRACYCLINE]: “Negative: confirmed by electron microscopy”.
Next, `CN/C(=N/CCSCc1nc[nH]c1C)NC#N` [CIMETIDINE]: “Negative: confirmed by electron microscopy”; `CC(C)(Oc1ccc(C2CC2(Cl)Cl)cc1)C(=O)O` (centres undefined) [CIPROFIBRATE]: “Negative: confirmed by electron microscopy”.
With `CN(C)CCCC1(c2ccc(F)cc2)OCc2cc(C#N)ccc21` (centres undefined) [CITALOPRAM] the entry was “Positive: strong inducer confirmed by electron microscopy”; with `CC[C@H]1OC(=O)[C@H](C)[C@@H](O[C@H]2C[C@@](C)(OC)[C@@H](O)[C@H](C)O2)[C@H](C)[C@@H](O[C@@H]2O[C@H](C)C[C@H](N(C)C)[C@H]2O)[C@](C)(OC)C[C@@H](C)C(=O)[C@H](C)[C@@H](O)[C@]1(C)O` [CLARITHROMYCIN], “Negative: confirmed by electron microscopy”; with `O=C(O)[C@H]1/C(=C/CO)O[C@@H]2CC(=O)N21` [CLAVULANIC ACID], “Negative: based on the absence of positive reported data from WMDD”.
On to `CCC[C@@H]1C[C@@H](C(=O)N[C@@H]([C@H]2O[C@H](SC)[C@H](O)[C@@H](O)[C@H]2O)[C@H](C)Cl)N(C)C1` [CLINDAMYCIN], for which the Phospholipidosis entry is reported as “Positive: strong inducer confirmed by electron microscopy”.
With `Oc1c(I)cc(Cl)c2cccnc12` [CLIOQUINOL] the entry was “Negative: based on the absence of positive reported data from WMDD”; with `CC(CN(C)C)C(C)(O)Cc1ccc(Cl)cc1` (centres undefined) [CLOBUTINOL], “Negative: based on the absence of positive reported data from WMDD”; with `CC1(C)N=C(N)N=C(N)N1OCc1ccc(Cl)c(Cl)c1` [CLOCIGUANIL], “Positive: weak inducer based on presence of foamy macrophages and cytoplasmic vacuolations”.
With `CC(C)/N=c1\cc2n(-c3ccc(Cl)cc3)c3ccccc3nc-2cc1Nc1ccc(Cl)cc1` [CLOFAZIMINE] the entry was “Negative: based on the absence of positive reported data from WMDD”; with `CN(C)C(=O)CCCOC(=O)C(C)(C)Oc1ccc(Cl)cc1` [CLOFIBRIDE], “Negative: based on the absence of positive reported data from WMDD”; with `CCOC(=O)NC(C)(C)Cc1ccc(Cl)cc1` [CLOFOREX], “Negative: confirmed by electron microscopy”.
Next, `N#Cc1ccc(NC(=O)N=C(N)N)cc1Cl` [CLOGUANAMIL]: “Positive: weak inducer based on presence of foamy macrophages and cytoplasmic vacuolations”.
Consider `CN(C)CCCC1c2ccccc2Nc2ccc(Cl)cc21` (centres undefined) [CLOMACRAN], for which the Phospholipidosis result was “Positive: strong inducer confirmed by electron microscopy”.
As to `CN(C)CCCN1c2ccccc2CCc2ccc(Cl)cc21` [CLOMIPRAMINE], the Phospholipidosis entry is reported as “Positive: strong inducer confirmed by electron microscopy”.
With `Clc1cccc(Cl)c1N=C1NCCN1` [CLONIDINE] the entry was “Negative: based on the absence of positive reported data from WMDD”; with `C[C@]12C=CC(=O)C=C1C(Cl)=C[C@@H]1[C@@H]2[C@@H](O)C[C@@]2(C)[C@H]1CC[C@]2(O)C(=O)CO` [CLOPREDNOL], “Negative: based on the absence of positive reported data from WMDD”; with `CC(C)(N)Cc1ccccc1Cl` [CLORTERMINE], “Negative: based on the absence of positive reported data from WMDD”.
Next, `CN1CCN(C2=Nc3ccccc3Sc3ccc(Cl)cc32)CC1` [CLOTHIAPINE]: “Negative: based on the absence of positive reported data from WMDD”.
Regarding `CN1CCN(C2=Nc3cc(Cl)ccc3Nc3ccccc32)CC1` [CLOZAPINE], the Phospholipidosis result is on record as “Positive: strong inducer confirmed by electron microscopy”.
Next, `CCC(c1ccc(OCCN(CC)CC)cc1)C(CC)c1ccc(OCCN(CC)CC)cc1` (centres undefined) [CORALGIL]: “Positive: strong inducer confirmed by electron microscopy”.
Next, `CC1CC(OC(=O)C(O)c2ccccc2)CC(C)(C)C1` (centres undefined) [CYCLANDELATE]: “Negative: based on the absence of positive reported data from WMDD”; `C[C@H]1[C@H]2Cc3ccc(O)cc3[C@]1(C)CCN2CC1CC1` [CYCLAZOCINE]: “Negative: based on the absence of positive reported data from WMDD”; `CN1CCN(C(c2ccccc2)c2ccccc2)CC1` [CYCLIZINE]: “Positive: strong inducer confirmed by electron microscopy”.
With `CCC1(C2=CCCCC2)C(=O)NC(=O)NC1=O` [CYCLOBARBITAL] the entry was “Negative: based on the absence of positive reported data from WMDD”; with `CC(=O)Oc1ccc(C(=C2CCCCC2)c2ccc(OC(C)=O)cc2)cc1` [CYCLOFENIL], “Negative: based on the absence of positive reported data from WMDD”; with `CC(=O)[C@@]1(O)CC[C@H]2[C@@H]3C=C(Cl)C4=CC(=O)[C@@H]5C[C@@H]5[C@]4(C)[C@H]3CC[C@@]21C` [CYPROTERONE], “Negative: based on the absence of positive reported data from WMDD”.
On to `NCCS` [CYSTEAMINE], for which the Phospholipidosis result is listed as “Negative: based on the absence of positive reported data from WMDD”.
With `Nc1ccn([C@@H]2O[C@H](CO)[C@@H](O)[C@@H]2O)c(=O)n1` [CYTARABINE] the entry was “Negative: based on the absence of positive reported data from WMDD”.
With `CN(C)/N=N/c1[nH]cnc1C(N)=O` [DACARBAZINE] the entry was “Negative: based on the absence of positive reported data from WMDD”.
Next, `CC(C)(N)CO` [DEANOL]: “Negative: based on the absence of positive reported data from WMDD”; `N=C(N)N1CCc2ccccc2C1` [DEBRISOQUIN]: “Negative: based on the absence of positive reported data from WMDD”; `C[N+](C)(C)CCCCCCCCCC[N+](C)(C)C.[Br-].[Br-]` [DECAMETHONIUM BROMIDE]: “Negative: based on the absence of positive reported data from WMDD”.
As for `CC(=O)O[C@H]1CC[C@@]2(C)C(=CC[C@@H]3[C@@H]2CC[C@]2(C)C(=O)CC[C@@H]32)C1` [DEHYDROEPIANDROSTERONE ACETATE], the Phospholipidosis entry is recorded as “Negative: based on the absence of positive reported data from WMDD”.
Next, `CC(C)Nc1cccnc1N1CCN(C(=O)c2cc3cc(NS(C)(=O)=O)ccc3[nH]2)CC1` [DELAVIRDINE]: “Negative: based on the absence of positive reported data from WMDD”.
With `CNCCCN1c2ccccc2CCc2ccccc21` [DESIPRAMINE] the entry was “Positive: weak inducer based on presence of foamy macrophages and cytoplasmic vacuolations”; with `CC(=O)OCC(=O)[C@H]1CC[C@H]2[C@@H]3CCC4=CC(=O)CC[C@]4(C)[C@H]3CC[C@]12C` [DESOXYCORTICOSTERONE ACETATE], “Negative: based on the absence of positive reported data from WMDD”; with `CN1C(=O)CN=C(c2ccccc2)c2cc(Cl)ccc21` [DIAZEPAM], “Negative: confirmed by electron microscopy”.
With `NC[C@@H]1CC[C@@H](N)[C@@H](O[C@H]2[C@H](O)[C@@H](O[C@H]3O[C@H](CO)[C@@H](O)[C@H](N)[C@H]3O)[C@H](N)C[C@@H]2N)O1` [DIBEKACIN] the entry was “Positive: strong inducer confirmed by electron microscopy”; with `Cc1cc(=O)n(-c2ccccc2)n1C.OC(O)C(Cl)(Cl)Cl.OC(O)C(Cl)(Cl)Cl` [DICHLORALPHENAZONE], “Negative: based on the absence of positive reported data from WMDD”; with `NS(=O)(=O)c1cc(Cl)c(Cl)c(S(N)(=O)=O)c1` [DICHLORPHENAMIDE], “Negative: based on the absence of positive reported data from WMDD”.
`C[C@H]1O[C@@H](O[C@H]2[C@@H](O)C[C@H](O[C@H]3[C@@H](O)C[C@H](O[C@H]4CC[C@@]5(C)[C@H](CC[C@@H]6[C@@H]5C[C@@H](O)[C@]5(C)[C@@H](C7=CC(=O)OC7)CC[C@]65O)C4)O[C@@H]3C)O[C@@H]2C)C[C@H](O)[C@@H]1O` [DIGOXIN]: the Phospholipidosis result is on record as “Negative: based on the absence of positive reported data from WMDD”.

The values above are taken from ChEMBL document CHEMBL1697821, “Development of a phospholipidosis database and predictive quantitative structure-activity relationship (QSAR) models” (Toxicol Mech Methods, 2008).
